Measured values published in patent US20120302609A1, “Pyrazolines for the Modulation of PKM2” (Dynamix Pharmaceuticals LTD., priority 2011, published 2012).

Key:
H1299 (lung) = assay: Cell proliferation assay (CellTiter-Glo Luminescent); format: cell-based, human; conditions: 96 hr
Method: 1. Cells were grown according to the ATCC conditions. 2. Cell feeding (passaging) was timed such that the cells were in exponential growth phase at the time of the assay.
3. On day 1, H1299 cells were counted. Cell numbers were adjusted to the desired cell concentration in Media 1: RPMI 1640 Invitrogen 11879020 (that contained no glucose or pyruvate) with 10% FBS, and 1 mM D-Glucose (4 μl of 2.5 M D-glucose G8769 was added in preparing 10 ml RPMI media with 1 mM glucose). A 200 μl of H1299 cell suspension was added to appropriate wells in the 96-well plates, and incubated at 37° C. in the CO2 cell incubator under normal growing conditions for overnight. 4. On day 2, a 100 mM stock concentration of test compounds in 100% DMSO was prepared and serially diluted with 100% DMSO to 33.33 mM, 11.11 mM, and 3.7 mM. A 1:1000 dilution was made to each concentration in media 1 (yielding 0.1% final DMSO concentration). The media was aspirated completely from the cell plate. Each 100 μl of the following solutions (100 μM, 33.33 μM, 11.11 μM, and 3.7 μM) was added to the cells. DMSO in a final concentration of 0.1%, and media without DMSO, were added to the cells and used as a negative control. Empty wells around the experimental wells were filled with PBS. The plate was sealed with parafilm to reduce evaporation. 5. The plate was incubated under normal conditions (5% CO2, and 95% air), for 96 hours at 37° C. 6. On day 6 (after 96 hr incubation), the plate was equilibrated to room temperature for approximately 30 minutes. A 100 μl of CellTiter-Glo Reagent was added in each well of the plate. Contents were mixed for 2 minutes on an orbital shaker to induce cell lysis. The plate was incubated at room temperature for 10 minutes to stabilize luminescent signal. Luminescence was recorded with Flexstation 3.
Unless noted otherwise, proliferation of control or compound treated H1299 cells was measured using CellTiter-Glo Luminescent assay following 96 hr incubation of the cells with and without test compounds. The AC50 values, shown in Table 3, were coded according to follows: A: <3 μM; B: 3-10 μM; C: 10-20 μM; or D: >20 μM.

PKM2, human recombinant = molecular target: T1, PKM2, human recombinant (Homo sapiens, UniProt P14618); assay: PKM2 enzymatic activity assay (Kinase-Glo Plus luminescence); format: biochemical; conditions: for AC50: 0.1 nM PKM2, 0.1 mM ADP, 0.5 mM PEP, 1 hour, room temperature, read-out: AC50 group; for Emax: 1 h, maximum percent activity, luminescence without compound = 0% activity, read-out: Max activity Group;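 as to Max activity Group: percent increase over no-compound signal after subtracting the no-PKM2 background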
T1 construct: purchased BPS 50295
T1 sequence (P14618 whole entry): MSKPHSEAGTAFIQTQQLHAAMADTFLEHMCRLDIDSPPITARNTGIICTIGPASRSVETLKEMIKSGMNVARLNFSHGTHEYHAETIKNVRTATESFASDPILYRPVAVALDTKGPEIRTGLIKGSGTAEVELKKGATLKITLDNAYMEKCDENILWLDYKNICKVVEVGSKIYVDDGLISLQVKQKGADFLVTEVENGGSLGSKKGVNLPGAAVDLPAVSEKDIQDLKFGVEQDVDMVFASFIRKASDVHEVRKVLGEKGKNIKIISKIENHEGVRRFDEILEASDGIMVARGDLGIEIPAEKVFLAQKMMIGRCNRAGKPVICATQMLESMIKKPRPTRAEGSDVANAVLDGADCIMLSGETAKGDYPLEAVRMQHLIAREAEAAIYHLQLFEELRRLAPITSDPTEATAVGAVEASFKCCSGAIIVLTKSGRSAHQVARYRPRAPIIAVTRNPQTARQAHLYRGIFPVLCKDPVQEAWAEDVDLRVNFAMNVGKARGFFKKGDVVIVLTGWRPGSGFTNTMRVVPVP
How it was run: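 Activation assay: 0.1 nM recombinant human PKM2 with 0.1 mM ADP and 0.5 mM PEP in imidazole buffer pH 7.2, 1 hour at room temperature, in duplicate; ATP produced read by Kinase-Glo Plus luminescence. % activity relative to no-compound and no-enzyme wells; AC50 as half-maximal activation from sigmoidal fit; FBP 0.5 mM positive control.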

BT-549 (breast) = assay: Cell proliferation assay (CellTiter-Glo Luminescent); format: cell-based; conditions: Homo sapiens, Complete media
[1] = Homo sapiens, NCI-H1299, 1 mM glucose

Compound	AC50 (H1299 (lung); [1])	AC50 (PKM2, human recombinant)	Emax (PKM2, human recombinant)	AC50 (BT-549 (breast); Assay duration: 72 hours, Readout: CellTiter Glo)	AC50 (H1299 (lung); 5 mM glucose)	AC50 (H1299 (lung); Complete media)	AC50 (BT-549 (breast); 96 hr, CellTiter-Glo)
CCS(=O)(=O)Nc1ccc(C2=NN(C(C)=O)C(c3ccc(OC)cc3)C2)cc1 (racemic) [Compound 1A, N-(4-(1-acetyl-5-(4-methoxyphenyl)-4,5-dihydro-1H-pyrazol-3-yl)phenyl)ethanesulfonamide]	10 to 20 µM	≤ 1 µM	130 to 200%	> 20 µM			
COc1ccc([C@@H]2CC(c3ccc(NS(=O)(=O)c4ccc(F)cc4)cc3)=NN2C(C)=O)cc1 [Compound 13A, (S)—N-(4-(1-acetyl-5-(4-methoxyphenyl)-4,5-dihydro-1H-pyrazol-3-yl)phenyl)-4-fluorobenzenesulfonamide]	10 to 20 µM	≤ 1 µM	130 to 200%		10 to 20 µM	10 to 20 µM	10 to 20 µM
